The results in this text go back to patent publication US11001605B2, “Cyclic dinucleotides containing benzimidazole, method for the production of same, and use of same to activate stimulator of interferon genes (sting)-dependent signaling pathways” (BIOLOG LIFE SCIENCE INSTITUTE GmbH & Co. KG, priority 2016, dated 2021).

Data set [1] has as its system STING-induced dimerisation and phosphorylation of IRF3, STING-induced phosphorylation of TBK1. The data set is described as follows: STING-induced dimerisation and phosphorylation of IRF3 and phosphorylation of TBK1, Western Blot of THP-1 cell lysate. The class given is cell-based, human. Particulars: THP-1 cells, native gel and SDS-PAGE Western Blot, versus buffer control. The procedure: Cell line: THP-1 cells (Sigma Cat. No. 88081201-1VL) were isolated from peripheral blood of a patient with acute leukaemia.
After application of an inventive CDN or a buffer control to THP1 cells in a culture dish a cell lysate is prepared, of which one part is applied to a native polyacrylamide gel and the other part to two denaturing polyacrylamide gels (SDS-PAGE). The developed gels are analysed with Western Blot technique.
In case of the native gel an IRF3 antibody is used.
The presence of an inventive CDN results in the formation of a second band, showing a running behaviour, which corresponds to the doubled molecular weight of IRF3. This band represents the dimer of IRF3, that has been formed under the influence of an inventive CDN.
In case of the two denaturing gels, either an antibody against phosphorylated IRF3 or an antibody against phosphorylated TBK1 is used. In the buffer control for each of the gels only a very weak band is detected. After application of an inventive CDN, the intensities of these bands are much more pronounced. This increase of intensity reflects the phosphorylation of IRF3 and of TBK1, respectively, induced by the inventive CDNs. Both, the dimerisation of IRF3 and the detected phosphorylations are a direct result of STING activation.
In general terms: In western blotting, separated proteins are transferred to a membrane and probed.

The nature of data set [2]: Lipophilicity determination by gradient HPLC (log k′g). The note with it: HPLC gradient 1, RP-18, triethylammonium phosphate buffer pH 6.5 / methanol (ion pair chromatography). The class given is physicochemical. The procedure: Gradient 1: Stationary phase: Polygosil 60-10, RP-18; 250×4 mm (Macherey & Nagel, DOren, Germany). Mobile phase A: 10 ml 1 M triethylammonium phosphate buffer (TEAP), pH 6.5+990 ml methanol. Mobile phase B: 10 ml 1 M TEAP, pH 6.5+990 ml H2O. Time program: 0 min: 100% B; 60 min: 100% A; 65 min: 100% A; 70 min: 100% B; 90 min: 100% B. Flow rate: 1.0 ml/min.
The octanol/water coefficient Log P is the commonly accepted indicator for the expected property of a given chemical entity to pass cellular membranes by passive diffusion. However, its practical determination for polar compounds such as multiply charged nucleotides is difficult in reality. Often, the information about membrane permeability must be received by fragmental analysis or other calculations.
Given this fact, an established HPLC method is used here, which is based on the measurement of retention on a reversed phase column^7. In contrast to Log P, this method yields the indicator log k′g, which allows for a ranking of different nucleotides of the same charge according to their lipophilicity.
Since CDNs are twofold negatively charged molecules which are only very insufficiently retarded on a reversed phase HPLC column, the determinations were performed in presence of the lipophilic triethylammonium cation (ion pair chromatography).
According to the established method^7 HPLC gradient 1 was used for the determination of lipophilicity.

Another data set concerns STING signalling pathway. The data set is described as follows: Interferon-β promoter SEAP reporter assay in THP1-Blue cells. Particulars: 0, 10, 20, 40 μg/ml, 24 hours. The class given is cell-based, human. Here is the method: Legend for Synthesis 4: THP1-Blue™ cells ((THP1-ISG); InvivoGen, catalogue number: thp-isg; concentration: 5×10^5/ml, 180 μl/well (96-well-plate) were incubated with inventive CDNs in different concentrations (0 μg/ml; 10 μg/ml; 20 μg/ml; 40 μg/ml) in medium (RPMI-1640, 2 mM L-glutamine, 1.5 g/I sodium bicarbonate, 4.5 g/I glucose, 10 mM HEPES, 1 mM sodium pyruvate, 10% FCS, 100 μg/ml Zeocin™, 110 μg/ml Normocin™, Pen-Strep 50 U/ml) for 24 hours at 37° C. in 5% CO2. The quantification was performed with SEAP detection reagent QUANTI-Blue™ (InvivoGen; catalogue number: rep-qb1; incubation time: 30 min at 37° C. in 5% CO2) by optical density (OD) determination at 625 nm.
Legend for Synthesis 5: THP1-Blue™ cells ((THP1-ISG); InvivoGen, catalogue number: thp-isg; concentration: 5×10^5/ml, 180 μl/well (96-well-plate) and THP1 Dual™ KO STING cells ((STING KO) InvivoGen, catalogue number: thpd-kostg; concentration: 5×10^5/ml, 180 μl/well (96-well-plate) were incubated with inventive CDNs (concentration 40 μg/ml each) in medium (RPMI-1640, 2 mM L-glutamine, 1.5 g/I sodium bicarbonate, 4.5 g/I glucose, 10 mM HEPES, 1 mM sodium pyruvate, 10% FCS, 100 μg/mL Zeocin™, 110 μg/mL Normocin™, Pen-Strep 50 U/mL) for 24 hours at 37° C. in 5% CO2. For incubations with THP1 Dual™ KO STING cells, 10 μg/ml of blasticidin were added to the medium. Quantification was performed with SEAP detection reagent QUANTI-Blue™ (InvivoGen; catalogue number: rep-qb1; incubation time: 15 min at 37° C. in 5% CO2) by optical density (OD) determination at 625 nm.
Cell line: THP1-Blue™ cells (InvivoGen, catalogue number: thp-isg) are derived from THP1 cells. THP1-Blue™ cells in a cell culture dish are stimulated by the administration of a CDN according to the invention or a buffer control.
In these genetically modified cells, the gene for secreted embryonic alkaline phosphatase (SEAP) is under the control of an interferon-β promoter.
After stimulation of the cells with an inventive CDN, the supernatant of the cell culture was removed and the enzymatic activity of SEAP was measured photometrically in a colorimetric assay by measuring the extinction at 625 nm (optical density; OD 625 nm).
Administration of an inventive CDN induces an increase in the activity of SEAP, which is a measure of the activity of the STING signalling pathway.
(In general: In a reporter assay the amount or activity of a reporter protein is the signal.)

On to `O=P1(S)OC[C@H]2O[C@@H](n3cnc4cc(Cl)c(Cl)cc43)C(O)C2OP(=O)(S)OC[C@H]2O[C@@H](n3cnc4cc(Cl)c(Cl)cc43)C(O1)C2O` (stereo partly shown) [Compound 11, cyclic (5,6-dichlorobenzimidazole riboside-(2′ −> 5′)-monophosphorothioate-(5,6-dichlorobenzimidazole riboside-(3′ −> 5′)-monophosphorothioate)], for which the “STING-induced dimerisation of IRF3, phosphorylation of IRF3 and phosphorylation of TBK1” value (from here on “STING-induced dimerisation of IRF3”) in data set [1] is on record as “positive”. `O=P1(O)OC[C@H]2O[C@@H](n3cnc4cc(Cl)c(Cl)cc43)C(O)C2OP(=O)(O)OC[C@H]2O[C@@H](n3cnc4cc(Cl)c(Cl)cc43)C(O)C2O1` (stereo partly shown) [Compound 7, cyclic (5,6-dichlorobenzimidazole riboside-(3′ −> 5′)-monophosphate-5,6-dichlorobenzimidazole riboside-(3′ −> 5′)-monophosphate)]: the “log k′g” value in data set [2] is recorded as 2.970. As to `Nc1nc2c(ncn2[C@@H]2O[C@@H]3COP(=O)(S)OC4C(O)[C@H](n5cnc6ccccc65)O[C@@H]4COP(=O)(S)OC2C3O)c(=O)[nH]1` (single isomer, unassigned) [Compound 23, MI1, Cyclic (guanosine-(2′→5′)-monophosphorothioate-benzimidazole riboside-(3′→5′)-monophosphorothioate)], in data set [2] (listed as 23, MI1), the “log k′g” value is reported as 1.509. As to `O=c1[nH]cnc2c1ncn2[C@@H]1O[C@@H]2COP(=O)(O)OC3C(O)[C@H](n4cnc5ccccc54)O[C@@H]3COP(=O)(O)OC2C1F` (stereo partly shown) [Compound 85, cyclic (2′-fluoro-2′-deoxyinosine-(3′ −> 5′)-monophosphate-benzimidazole riboside-(3′ −> 5′)-monophosphate)], the “log k′g” value in data set [2] turned out to be 1.211. On to `Nc1nc2c(ncn2[C@@H]2O[C@@H]3COP(=O)(S)OC4C(O)[C@@H](COP(=O)(S)OC2C3O)O[C@H]4n2cnc3cc(Cl)c(Cl)cc32)c(=O)[nH]1` (stereo partly shown) [Compound 30, cyclic (guanosine-(2′ −> 5′)-monophosphorothioate-5,6-dichlorobenzimidazole riboside-(2′ −> 5′)-monophosphorothioate)], for which, in data set [1], the “STING-induced dimerisation of IRF3” value was “positive”. As for `O=P1(O)OC[C@H]2O[C@@H](n3cnc4ccccc43)C(O)C2OP(=O)(O)OC[C@H]2O[C@@H](n3cnc4ccccc43)C(O)C2O1` (stereo partly shown) [Compound 1, cyclic (benzimidazole riboside- (3′ −> 5′)-monophosphate- benzimidazole riboside-(3′ −> 5′)- monophosphate)], the “log k′g” value in data set [2] was 1.732.

For `Nc1nc2c(ncn2[C@@H]2O[C@@H]3COP(=O)(S)OC4C(O)[C@H](n5cnc6ccccc65)O[C@@H]4COP(=O)(S)OC2C3O)c(=O)[nH]1` (single isomer, unassigned) [Compound 23, MI2, Cyclic (guanosine-(2′→5′)-monophosphorothioate-benzimidazole riboside-(3′→5′)-monophosphorothioate)], the “log k′g” value in data set [2] (listed as 23, MI2) is 1.658. Further, the “SEAP activity, elevated OD at 625 nm, concentration-dependent” value in the data set on STING signalling pathway is “positive”. For the compound `Nc1nc2c(ncn2[C@@H]2O[C@@H]3COP(=O)(S)OC4C(O)[C@H](n5cnc6cc(Cl)c(Cl)cc65)O[C@@H]4COP(=O)(S)OC2C3O)c(=O)[nH]1` (single isomer, unassigned) [Compound 29, MI1, Cyclic (guanosine-(2′→5′)-monophosphorothioate-5,6-dichlorobenzimidazole riboside-(3′→5′)-monophosphorothioate)], in data set [2] (listed as 29, MI1), the “log k′g” value is listed as 2.318. On to `Nc1ncnc2c1ncn2[C@@H]1O[C@@H]2COP(=O)(S)OC3C(O)[C@@H](COP(=O)(S)OC2C1O)O[C@H]3n1cnc2ccccc21` (single isomer, unassigned) [Compound 98, MI2, Cyclic (adenosine-(3′→5′)-monophosphorothioate-benzimidazole riboside-(2′→5′)-monophosphorothioate)], for which, in data set [2] (listed as 98, MI2), the “log k′g” value came out at 1.584. In the case of `Nc1nc2c(ncn2[C@@H]2O[C@@H]3COP(=O)(S)OC4C(O)[C@H](n5cnc6cc(Cl)c(Cl)cc65)O[C@@H]4COP(=O)(S)OC2C3O)c(=O)[nH]1` (stereo partly shown) [Compound 29, cyclic (guanosine-(2′ −> 5′)-monophosphorothioate-5,6-dichlorobenzimidazole riboside-(3′ −> 5′)-monophosphorothioate)], the “STING-induced dimerisation of IRF3” value in data set [1] was “positive”.

Take `O=P1(S)OC[C@H]2O[C@@H](n3cnc4ccccc43)C(O)C2OP(=O)(S)OC[C@H]2O[C@@H](n3cnc4ccccc43)C(O)C2O1` (stereo partly shown) [Compound 4, cyclic (benzimidazole riboside- (3′ −> 5′)-monophosphorothioate- benzimidazole riboside-(3′ −> 5′)- monophosphorothioate)]: the “STING-induced dimerisation of IRF3” value in data set [1] is on record as “positive”.

In the case of `Nc1ncnc2c1ncn2[C@@H]1O[C@@H]2COP(=O)(O)OC3C(O)[C@H](n4cnc5cc(Cl)c(Cl)cc54)O[C@@H]3COP(=O)(O)OC2C1F` (stereo partly shown) [Compound 81, cyclic (2′-fluoro-2′-deoxyadenosine-(3′ −> 5′)-monophosphate-5,6-dichlorobenzimidazole riboside-(3′ −> 5′)-monophosphate)], the “log k′g” value in data set [2] stood at 2.039. Also, the “SEAP activity, elevated OD at 625 nm, concentration-dependent” value in the data set on STING signalling pathway was “positive”. On to `Nc1nc2c(ncn2[C@@H]2O[C@@H]3COP(=O)(O)O[C@H]4[C@@H](O)[C@H](n5cnc6c(N)ncnc65)O[C@@H]4COP(=O)(O)O[C@@H]2[C@@H]3O)c(=O)[nH]1` [2′,3′-cGAMP, reference compound], for which the “log k′g” value in data set [2] is reported as 0.766. The same measure, in the same setting: with `Nc1nc2c(ncn2[C@@H]2O[C@@H]3COP(=O)(O)O[C@H]4[C@@H](O)[C@H](n5cnc6c(=O)[nH]c(N)nc65)O[C@@H]4COP(=O)(O)O[C@H]3[C@H]2O)c(=O)[nH]1` [c-diGMP, reference compound] the figure was 0.840.
